Results from patent US20030157573A1, “Use of Axl receptor for diagnosis and treatment of renal disease” (priority 2002, published 2003).
Where a name gives a salt, the structure may show the parent alone.

Assays:
[1] = test system: Normal human fetal lung fibroblasts (WI-38); assay: Fibroblast proliferation assay (neutral red staining); type: cell-based; conditions: for decrease in fibroblast proliferation: DFO
Experimental: (§1) Normal human fetal lung fibroblasts (WI-38, Coriell Cell Repositories) were cultured and sub-cultured in DMEM, supplemented with 10% inactivated fetal bovine serum (FBS), 2 mM L-glutamine, 100 U/ml penicillin, 100 μg/ml streptomycin. Fibroblasts were grown to confluence in 25 cm^2 tissue flasks and sub-cultured after trypsinization (0.5% trypsin-EDTA in Hank's balanced solution without Ca^2+ and Mg^2+) at 37° C. in an atmosphere of 5% CO2. Two ml of trypsin were added to each flask and incubated for 5 min; then cultures were centrifuged (5 min, 1000 rpm) and fresh medium was added to the pellet. Splitting conditions were 1:4-1:6.
The proliferation rate of sub-confluent fibroblasts was evaluated by staining with neutral red (BioRad). Fibroblasts were seeded in 96-well plate (6×10^3/well) in 200 μl of supplemented DMEM/10% FBS. After overnight culture, wells were washed twice with supplemented DMEM/20% FBS. Then, either TGF-β (2-20 ng/ml) or deferoxamine mesylate (DFO, which leads to conditions of chemical hypoxia) at a concentration of […] was added in 200 μl of supplemented DMEM/2% FBS for either 16 hours, 24 hours, 72 hours, or 5 days.
In the case of glucose treatments, after overnight culture, cell-containing wells were washed twice with supplemented glucose-free DMEM/2% FBS. Working concentrations of glucose (5.5 mM, 15 mM, 27.5 mM, or 55 mM) were prepared by dissolving stock solution (110 mM) in supplemented DMEM without glucose/2% FBS. Prepared solutions of glucose were added to fibroblast cultures for either 24 or 72 hours.
Upon completion of incubation, cells were stained with 100 μl of 1% neutral red for 2 hours. After washing with cold PBS, fibroblast monolayers were fixed with 200 μl of ethanol-Sorenson buffer solution (1:1) for 10 min. Optical density was measured with an automated spectrophotometer (λ=540 nm).

Ax1 [2] = conditions: vascular smooth muscle cells; cited from earlier work
mesangial cells = conditions: together with the extracellular domain of Ax1; blockade of the Gas6-mediated pathway; cited from earlier work
Ax1 [3] = assay: Western blot analysis of endogenous Ax1 expression after TGF-β stimulation; type: cell-based, rat
Experimental: FIG. 1. […] Lane 1: NRK 49F cells; Lane2: NRK 49F cells with TGF-β 5 ng/ml, 24 hr; Lane 3: Rat1 cells; Lane4: Rat1 cells+TGF-β 5 ng/ml, 24 hr; Lane 5: W138 cells; Lane 6: HeLa cells; Lane 7: 293 cells.
FIG. 2. […] Total cell lysates from Rat1 cells exposed to TGF-β stimulation (5 ng/ml for 15 minutes, 30 minutes, 60 minutes and 2 hours) were run on gel and probed with anti Ax1 C20 Ab (Western blot analysis). Samples in the first and last lane are from cells without TGF-β stimulation.
In order to verify the chip hybridization results, the response of endogenous Ax1 expression to TGF-β stimulation was monitored by Western blot analysis. Total cellular proteins from various cell lines, (of which Rat1 cell line was also stimulated by TGF-β (5 ng/ml for 24 hr) were extracted, and the expression of Ax1 was analyzed by Western blot analysis. Thirty (30) μg of total cellular lysate were run on an 8% SDS gel.
(§2) Further experiments were done on Rat1 cells that were serum starved for 24 hr and then stimulated for the indicated time (15 min-2 hr) with 5 ng/ml TGF-β.

Ax1 [4] = assay: Microarray hybridization of treated human fibroblasts (Fibrosis DNA chip); type: cell-based; conditions: TGF-β treatment of human fibroblasts
Experimental: Microarray-based analysis of gene expression was based on the analysis of human fibroblasts subject to selected stimuli resulting in changes in extracellular collagen accumulation and proliferation—the hallmarks of fibrosis. According to the present invention, a specific “Fibrosis” DNA chip was first prepared followed by a microarray hybridization experiments with 19 different types of probes. Analysis of the results was carried out by proprietary algorithms, and analysis of the selected set of genes was performed by using bioinformatics and the scienctific literature.
A dedicated human “Fibrosis” DNA chip was prepared according to assignee's SDGI method (PCT Application Publication No. WO 01/75180) from growth-arrested human fibroblasts.
Probes for microarray hybridization were derived from these treated fibroblasts. In accordance with the present invention, treatments that are relevant for diabetic nephropathy development were used, such as glucose deprivation or hypoxia (modeling ischemic conditions that develop in fibrotic kidney); high glucose (modeling diabetic hyperglycemia) and TGF-β induction (modeling a fibrotic condition that is characterized by growth factor and cytokine imbalance).
In the next step, the RNA from these treated fibroblasts was extracted and used for preparation of probes for microarray hybridization. The scheme of hybridization is presented below: […]

[5] = test system: Normal human fetal lung fibroblasts (WI-38); assay: Collagen production assay ([3H]-proline incorporation into collagenous proteins); type: cell-based; conditions: concentrations of 2-20 ng/ml
Experimental: as §1
Collagen production by confluent fibroblast monolayers was assessed by [^3H]-proline incorporation into collagenous proteins. Fibroblasts were seeded in 24-well tissue culture plates (2×10^4/well) and grown in 1 ml of supplemented DMEM/10%FBS until confluence.
Confluent fibroblast cultures were incubated with prepared solutions for either 24 or 48 hr. […] The production of collagen was determined as the difference between total [^3H]proline-containing proteins in the sample incubated without collagenase and those left after collagenase digestion. To determine the number of cells in each well, fibroblasts were detached by trypsinization on the last day of the experiment, and counted in a hemocytometer. […]

Ax1 [6] = assay: Ax1 immunoprecipitation and anti-phosphotyrosine blot after TGF-β stimulation; type: cell-based, rat; conditions: serum starved Rat1 cells, 5 ng/ml TGF-β, 15 min-2 hr
Experimental: FIG. 3. […] Rat1 cells exposed to TGF-β stimulation (5 ng/ml for 15 minutes, 30 minutes, 60 minutes and 2 hours) were used for immunoprecipitation. Ax1 was immunoprecipited with anti Ax1 M-20. Anti phosphotyrosine antibodies were used to monitor ax1 phosphorylation state following TGF-β treatment (5 ng/ml for 15 minutes-2 hr). Samples in the first and last lane are from cells without TGF-β stimulation.
as §2

Q: What does the source list for CC(=O)N(O)CCCCCNC(=O)CCC(=O)N(O)CCCCCNC(=O)CCC(=O)N(O)CCCCCN [DFO, deferoxamine mesylate]?
A: decrease in fibroblast proliferation ([1]; after 16 hr incubation): 20%; decrease in fibroblast proliferation ([1]; after 5 days of treatment): 80%

Q: With CCCCc1nc(Cl)c(CO)n1Cc1ccc(-c2ccccc2-c2nn[nH]n2)cc1 [losartan] as the compound, how does the “effect on angiotensin-stimulated Ax1 expression” value (Ax1 [2]) read?
A: The value was “blocked the stimulatory effect of angiotensin on Ax1 expression”.

Q: With CC(=O)CC(c1ccccc1)c1c(O)c2ccccc2oc1=O (stereo not shown) [wafarin] as the compound, how does the mesangial cell proliferation (mesangial cells) read?
A: The mesangial cell proliferation was “inhibit mesangial cell proliferation”.

Q: With TGF-β as the compound, how does the “endogenous Ax1 expression (Western blot)” value (Ax1 [3]; Rat1 cells, TGF-β 5 ng/ml for 24 hr) read?
A: The value was “slight up-regulation”.

Q: What about the “Ax1 protein level (Western blot)” value (Ax1 [3]; serum starved Rat1 cells, 5 ng/ml TGF-β, following 15 min) of the same compound?
A: The value was “induces Ax1 protein level”.

Q: And the “induction of Ax1 expression” value (Ax1 [4])?
A: Its value is “at least 2 fold”.

Q: And the “enhancement in collagen production” value [5]?
A: The value was 110-180%.

Q: What about the “increase in the fibroblast proliferation rate” value ([1]; 2 and 20 ng/ml, after 24 hrs treatment) of the same compound?
A: The value was roughly 60%.

Q: What about the Ax1 phosphorylation (Ax1 [6]) of the same compound?
A: The Ax1 phosphorylation was “Increase in its phosphorylation”.
